Experimental findings from ChEMBL document CHEMBL3091273, “Sulphonamide 1,4-dithia-7-azaspiro[4,4]nonane derivatives as gelatinase A inhibitors” (Bioorg Med Chem, 2013) are described below.

Data set [1] deals with 72 kDa type IV collagenase (Homo sapiens, UniProt P08253). Briefly: Inhibition of gelatinase A (unknown origin) after 30 mins by spectrophotometry.
Data set [2] deals with T1, Aminopeptidase N (Sus scrofa, UniProt P15145).
T1 sequence (P15145 whole entry): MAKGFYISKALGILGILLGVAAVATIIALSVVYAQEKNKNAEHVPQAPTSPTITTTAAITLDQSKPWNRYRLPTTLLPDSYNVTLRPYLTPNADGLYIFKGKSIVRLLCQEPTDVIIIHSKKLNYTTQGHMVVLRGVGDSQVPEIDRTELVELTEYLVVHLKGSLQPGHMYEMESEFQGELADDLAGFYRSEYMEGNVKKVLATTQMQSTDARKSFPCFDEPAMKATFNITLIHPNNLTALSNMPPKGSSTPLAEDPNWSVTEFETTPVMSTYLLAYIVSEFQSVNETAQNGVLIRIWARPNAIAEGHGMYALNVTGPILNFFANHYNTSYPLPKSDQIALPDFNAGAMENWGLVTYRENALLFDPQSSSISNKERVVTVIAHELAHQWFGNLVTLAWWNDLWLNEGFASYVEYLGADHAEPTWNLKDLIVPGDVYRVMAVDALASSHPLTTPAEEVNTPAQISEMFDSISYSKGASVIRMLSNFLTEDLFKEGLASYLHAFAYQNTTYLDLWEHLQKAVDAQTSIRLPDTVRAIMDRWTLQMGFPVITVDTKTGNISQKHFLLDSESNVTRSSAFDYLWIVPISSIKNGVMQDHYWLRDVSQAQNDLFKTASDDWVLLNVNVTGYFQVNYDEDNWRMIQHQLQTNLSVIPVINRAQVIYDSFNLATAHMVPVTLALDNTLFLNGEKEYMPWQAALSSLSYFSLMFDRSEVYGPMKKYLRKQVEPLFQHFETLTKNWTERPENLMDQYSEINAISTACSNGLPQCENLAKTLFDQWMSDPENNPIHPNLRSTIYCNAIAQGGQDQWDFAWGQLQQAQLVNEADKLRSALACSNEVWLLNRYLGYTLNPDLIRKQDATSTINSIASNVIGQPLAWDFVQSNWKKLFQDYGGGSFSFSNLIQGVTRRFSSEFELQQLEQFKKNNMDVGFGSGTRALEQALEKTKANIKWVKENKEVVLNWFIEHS
Briefly: Inhibition of pig kidney microsomal APN using L-Leu-p-nitroanilide as substrate preincubated for 30 mins by UV-vis spectrophotometry.

The subject of data set [3] is K562. Briefly: Antiproliferative activity against human K562 cells after 48 hrs by MTT assay. It counts as functional, cell-based.
For data set [4], the system named is H22. Briefly: Antimetastatic activity in […] cells xenografted Kunming mouse assessed as inhibition of tumor nodules formation at 50 mg/kg, po administered 6 days a week for two consecutive weeks. It counts as functional. The note with it: H22, 144 h.
Data set [5] has as its system HL-60. Briefly: Antiproliferative activity against human HL60 cells after 48 hrs by MTT assay. It counts as functional, cell-based.
The test system of data set [6] is Mus musculus. Briefly: Toxicity in […] cells xenografted Kunming mouse assessed as change in body weight at 50 mg/kg, po administered 6 days a week for two consecutive weeks (reference value: 26.03 +/- 5.04 grams). Set-up: dose 50 mg/kg, route oral. The note with it: in vivo, 144 h. It counts as organism-based.
Data set [7] has as its system SK-OV-3. Briefly: Antiproliferative activity against human SKOV3 cells after 48 hrs by MTT assay. It counts as functional, cell-based. The note with it: SK-OV-3, 48 h. (In general: Formazan colour is commonly taken as a measure of viable cells.)
For data set [8], the system named is H22. Briefly: Antimetastatic activity in […] cells xenografted Kunming mouse assessed as lung weight at 50 mg/kg, po administered 6 days a week for two consecutive weeks (reference value: 0.223 +/- 0.067 grams). It counts as functional. (In xenograft studies the graft and the host belong to different species.)

Calls of active or inactive are those of the source. No cut-off for these calls is given here.

72 kDa type IV collagenase, sequence (P08253 whole entry): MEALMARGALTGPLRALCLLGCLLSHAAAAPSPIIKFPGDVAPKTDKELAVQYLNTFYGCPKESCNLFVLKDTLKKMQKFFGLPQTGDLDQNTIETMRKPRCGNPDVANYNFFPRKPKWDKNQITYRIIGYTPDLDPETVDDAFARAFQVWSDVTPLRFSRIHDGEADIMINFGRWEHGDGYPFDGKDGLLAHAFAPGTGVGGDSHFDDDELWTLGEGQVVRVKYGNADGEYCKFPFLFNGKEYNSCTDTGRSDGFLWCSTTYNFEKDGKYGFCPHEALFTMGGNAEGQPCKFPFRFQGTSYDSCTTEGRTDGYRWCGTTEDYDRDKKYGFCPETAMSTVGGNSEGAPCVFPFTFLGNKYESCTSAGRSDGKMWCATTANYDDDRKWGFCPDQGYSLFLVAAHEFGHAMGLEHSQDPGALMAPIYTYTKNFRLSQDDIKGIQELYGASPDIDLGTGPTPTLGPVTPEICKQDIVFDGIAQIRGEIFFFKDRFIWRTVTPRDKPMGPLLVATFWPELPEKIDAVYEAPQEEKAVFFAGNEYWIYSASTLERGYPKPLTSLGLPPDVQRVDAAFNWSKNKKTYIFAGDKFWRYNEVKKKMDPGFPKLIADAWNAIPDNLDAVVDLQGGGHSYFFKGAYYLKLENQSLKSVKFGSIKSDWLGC

For the compound `O=C(Cc1ccccc1)NNC(=O)[C@@H]1CC2(CN1S(=O)(=O)c1ccccc1)SCCS2`, the IC50 (commonly the concentration that gives 50% inhibition) is 5440 nM in data set [1] and “Not Active” in data set [2].

Turning to `Cc1ccc(S(=O)(=O)N2CC3(C[C@H]2C(=O)O)SCCS3)cc1`, the IC50 in data set [1] is 2780 nM; in data set [2], “Not Active”.

As to `COc1ccc(S(=O)(=O)N2CC3(C[C@H]2C(=O)NN)SCCS3)cc1`, the IC50 in data set [1] was 10800 nM; in data set [2], “Not Active”.

With `COC(=O)[C@@H]1CC2(CN1S(=O)(=O)c1ccccc1)SCCS2`, the IC50 was 3090 nM in data set [1] and “Not Active” in data set [2].

Turning to `Cc1ccc(S(=O)(=O)N2CC3(C[C@H]2C(=O)NNC(=O)Cc2ccccc2)SCCS3)cc1`, the IC50 in data set [1] is 679 nM; in data set [2], “Not Active”; in data set [7], 150 µM. Moreover, the outcome in data set [3] and in data set [5] was inactive. Further, the inhibition in vivo (commonly the change of the read-out against control, counted positive when it falls) at 50 mg/kg in data set [4] was determined as 34.3%. Further, the Activity in data set [6] was 27.9 g; in data set [8] it was 0.27 g.

For the compound `O=C(O)[C@@H]1CC2(CN1S(=O)(=O)c1ccccc1)SCCS2`, the IC50 was 28200 nM in data set [1] and “Not Active” in data set [2].

`CCOC(=O)CNC(=O)[C@@H]1CC2(CN1S(=O)(=O)c1ccc(OC)cc1)SCCS2`: the IC50 in data set [1] was 325 nM; in data set [2], “Not Active”.

As to `COC(=O)[C@@H]1CC2(CN1S(=O)(=O)c1ccc(C)cc1)SCCS2`, the IC50 in data set [1] is 878 nM; in data set [2], “Not Active”.

For the compound `NNC(=O)[C@@H]1CC2(CN1S(=O)(=O)c1ccccc1)SCCS2`, the IC50 in data set [1] is 6560 nM; in data set [2] it was “Not Active”.

On to `COc1ccc(/C=C/C(=O)N2CC(NC(=O)c3cccnc3)CC2C(=O)NO)cc1OC` (configuration not stated), for which the IC50 in data set [1] was 1020 nM; in data set [2] it was “Not Active”.

Turning to `NNC(=O)[C@@H]1CC2(CN1S(=O)(=O)c1ccc([N+](=O)[O-])cc1)SCCS2`, the IC50 was 20600 nM in data set [1] and “Not Active” in data set [2].

For the compound `Cc1ccc(S(=O)(=O)N2CC3(C[C@H]2C(=O)NO)SCCS3)cc1`, the 50% inhibitory concentration (IC50) was 678 nM in data set [1] and “Not Active” in data set [2].

In the case of `CCOC(=O)CNC(=O)[C@@H]1CC2(CN1S(=O)(=O)c1ccccc1)SCCS2`, the 50% inhibitory concentration (IC50) is 678 nM in data set [1] and “Not Active” in data set [2].

As for `CCOC(=O)CNC(=O)[C@@H]1CC2(CN1S(=O)(=O)c1ccc(C)cc1)SCCS2`, the IC50 is 530 nM in data set [1] and “Not Active” in data set [2].

Take `COC(=O)[C@@H]1CC2(CN1S(=O)(=O)c1ccc(OC)cc1)SCCS2`: the results for the IC50 in data set [1] and in data set [2] were 7480 nM and “Not Active”, respectively.

For the compound `O=C(NO)[C@@H]1CC2(CN1S(=O)(=O)c1ccc([N+](=O)[O-])cc1)SCCS2`, the IC50 was 786 nM in data set [1] and “Not Active” in data set [2].

With `COC(=O)[C@@H]1CC2(CN1S(=O)(=O)c1ccc([N+](=O)[O-])cc1)SCCS2`, the IC50 was 77900 nM in data set [1] and “Not Active” in data set [2].

As to `CCOC(=O)CNC(=O)[C@@H]1CC2(CN1S(=O)(=O)c1ccc([N+](=O)[O-])cc1)SCCS2`, the IC50 in data set [1] is 325 nM; in data set [2], “Not Active”.

Consider `COc1ccc(S(=O)(=O)N2CC3(C[C@H]2C(=O)NNC(=O)Cc2ccccc2)SCCS3)cc1`, for which the values for the IC50 in data set [1] and in data set [2] were 386 nM and “Not Active”, respectively.

With `Cc1ccc(S(=O)(=O)N2CC3(C[C@H]2C(=O)NN)SCCS3)cc1`, the IC50 was 429000 nM in data set [1] and “Not Active” in data set [2].

On to `O=C(NO)[C@@H]1CC2(CN1S(=O)(=O)c1ccccc1)SCCS2`, for which the concentration for half-maximal inhibition (IC50) in data set [1] was 877 nM; in data set [2] it was “Not Active”.

`COc1ccc(S(=O)(=O)N2CC3(C[C@H]2C(=O)NO)SCCS3)cc1`: the IC50 in data set [1] is 516 nM; in data set [2] it was “Not Active”.

Consider `O=C(Cc1ccccc1)NNC(=O)[C@@H]1CC2(CN1S(=O)(=O)c1ccc([N+](=O)[O-])cc1)SCCS2`, for which the IC50 was 1800 nM in data set [1] and “Not Active” in data set [2].

`O=C(O)[C@@H]1CC2(CN1S(=O)(=O)c1ccc([N+](=O)[O-])cc1)SCCS2`: the IC50 in data set [1] was 835 nM; in data set [2], “Not Active”; in data set [7] it was 210 µM. The outcome in data set [3] and in data set [5] was inactive. The inhibition in vivo at 50 mg/kg in data set [4] was 26.3%. Also, the Activity in data set [6] worked out at 25.59 g; in data set [8], 0.288 g.

On to `COc1ccc(S(=O)(=O)N2CC3(C[C@H]2C(=O)O)SCCS3)cc1`, for which the IC50 was 9480 nM in data set [1] and “Not Active” in data set [2].
